Paper PMC9385671 (Nature Communications, 2022)
Values joined by “and” are separate entries in the source; they are usually repeats but may differ in a detail not shown here. Equal values may be shown once. Read-outs that look alike come from different tables or passages of the source.

Tests used:
[1] = Side-chain acidity: pKa by 1H NMR titration of free amino acids; format: physicochemical; settings: for pKa: aqueous KH2PO4 solution titrated with sodium hydroxide; for pKa of the phenolic side-chain: experimental error ±0.15
Method: 10–20 mg of an amino acid, 50 mg of KH2PO4 was dissolved in 15 ml of water and titrated by sodium hydroxide solution to distinct pH values. 500 μl were taken to NMR tubes, 50 μl deuterium oxidewas added and ^1H NMR spectra were measured using W5 pulse tray water suppression at 500 MHz frequency. The chemical shifts were plotted against pH and analyzed using Henderson-Hasselbalch equation to deliver the pKa values. Experimental error ±0.15.

MjTyrRS variants [2] = target: T1, MjTyrRS variants (Methanocaldococcus jannaschii, UniProt Q57834, D158A/F108Q/H70G/L162N/L65E/Q109C/Y32G); experiment: Intact cell fluorescence assay of HYs incorporation into SUMO-sfGFP; format: cell-based; settings: for Fluorescence Instensity: Synthetase B48RS
T1 construct: expressed in transfected cells
Method: (§1) The intact cell fluorescence assay was performed to approximately compare the Br2Y and Cl2Y incorporation efficiency of screened MjTyrRSs as well as to estimate their promiscuity against other Tyr analogues. Since the gene expression of SUMO-sfGFP was driven by T5 promoter on the one round positive selection plasmid, SUMO-sfGFP can be directly expressed in DH10b strain. […] Next day, an overnight culture was inoculated in a well at a ratio of 1:100 containing 300 μL TB medium supplemented with 50 μg/mL Kan,100 μg/mL Amp, 0.5 mM IPTG as well as 1 mM HYs while the corresponding control lacked the HYs. Cells were grown in 96 well plates (Ibidi) with orbital shaking (2 mm amplitude) for 24 h at 37 °C covered with a gas-permeable foil (Sigma Aldrich, Taufkirchen, Germany). […] After 24 h incubation, the optimal density and fluorescence was measured via top reading after the gas-permeable foil was removed. Each measurement was done in triplicate.

MjTyrRS variants [3] = experiment: as above; format: cell-based, Methanocaldococcus jannaschii
Method: as §1

MjTyrRS variants [4] = target: T2, MjTyrRS variants (Methanocaldococcus jannaschii, UniProt Q57834, D158A/F108N/H70G/L162C/L65E/Y32V); experiment: as above; format: cell-based; settings: Synthetase C64RS
T2 construct: expressed in transfected cells
Method: as §1

FtsZ-YFP-mts = FtsZ-YFP-mts (Escherichia coli, UniProt P0A9A6); design: made in house; host or cells: E. coli BL21(DE3) for the wild type; settings: intensity line profile
Method: 1,2-dioleoyl-sn-glycero-3-phosphocholine (DOPC):1,2-dioleoyl-sn-glycero-3-phospho-(1’-rac-glycerol) (DOPG), 70:30 mol % mixture, was dissolved in chloroform in a quartz container, then dehumidified under a gas nitrogen stream. Chloroform traces were further removed through desiccation (1 h). Afterwards, the lipid film was hydrated to a final concentration of 4 mg/ml in supported lipid bilayers (SLB) buffer (50 mM Tris-HCl at pH 7.5, 150 mM KCl), and incubated at 37 °C for 30 min. The lipid film was then completely resuspended by vortexing rigorously to obtain multilamellar vesicles of different sizes. This mixture was then placed in a bath sonicator where shear forces help to reduce the size of the vesicles, giving rise to small unilamellar vesicles (SUVs). The SUV dispersion were stored at −20 °C as 20 µl aliquots.
Glass coverslips (1.5#, 24 x 24 mm) were cleaned by piranha solution overnight, followed by extensive washing with milliQ H2O. Then glass coverslips were blown dry with compressed air. The reaction chamber was prepared by attaching a plastic ring on a cleaned glass coverslip using ultraviolet glue (Thorlabs No. 68). For supported lipid bilayer formation, the SUV dispersion was diluted in SLB buffer to 0.5 mg/ml, of which 75 µl was added to the reaction chamber. Adding CaCl2 to a final concentration of 3 mM induced fusion of the vesicles and the formation of a lipid bilayer on coversilde. After 20 min of incubation at 37 °C, the sample was rinsed with 2 ml pre-warmed SLB buffer.
Polymerization was induced by adding 4 mM GTP.
The UltimateFocus feature of DeltaVision Elite maintains the focus plane constant in time. […] Fluorescence imaging was performed using a standard FITC filter set. Images were acquired with a PCO sCMOS 5.5 camera (PCO, Germany) controlled by the softWoRx Software (GE Healthcare Life Sciences, Germany). For time-lapse experiments, images were acquired every 3 s with a 0.05 s exposure time and light illumination shuttered between acquisitions.

[5] = experimental error ±0.15, read-out: Ammonium pKa
[6] = experimental error ±0.15, read-out: pKa of the phenolic side-chain

T1 sequence (Q57834 whole entry Y32G/L65E/H70G/F108Q/Q109C/D158A/L162N): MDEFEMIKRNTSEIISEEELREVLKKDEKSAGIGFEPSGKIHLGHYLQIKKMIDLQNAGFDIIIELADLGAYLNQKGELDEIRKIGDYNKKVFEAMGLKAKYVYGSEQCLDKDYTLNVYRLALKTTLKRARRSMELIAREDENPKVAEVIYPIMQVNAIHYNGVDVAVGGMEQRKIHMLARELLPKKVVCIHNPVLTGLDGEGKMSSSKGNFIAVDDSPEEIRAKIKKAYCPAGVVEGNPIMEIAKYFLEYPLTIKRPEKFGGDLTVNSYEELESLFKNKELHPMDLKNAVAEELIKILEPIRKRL
FtsZ-YFP-mts, sequence (P0A9A6 1-366): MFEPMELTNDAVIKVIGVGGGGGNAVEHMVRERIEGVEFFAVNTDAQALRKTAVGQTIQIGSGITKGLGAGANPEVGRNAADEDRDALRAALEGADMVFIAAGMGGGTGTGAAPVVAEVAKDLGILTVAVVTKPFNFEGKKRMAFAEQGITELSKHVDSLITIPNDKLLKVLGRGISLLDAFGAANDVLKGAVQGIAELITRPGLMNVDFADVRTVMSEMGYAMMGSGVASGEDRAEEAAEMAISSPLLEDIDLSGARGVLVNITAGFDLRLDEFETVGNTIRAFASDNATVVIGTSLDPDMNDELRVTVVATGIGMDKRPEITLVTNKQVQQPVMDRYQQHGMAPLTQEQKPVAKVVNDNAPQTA
T2 sequence (Q57834 whole entry Y32V/L65E/H70G/F108N/D158A/L162C): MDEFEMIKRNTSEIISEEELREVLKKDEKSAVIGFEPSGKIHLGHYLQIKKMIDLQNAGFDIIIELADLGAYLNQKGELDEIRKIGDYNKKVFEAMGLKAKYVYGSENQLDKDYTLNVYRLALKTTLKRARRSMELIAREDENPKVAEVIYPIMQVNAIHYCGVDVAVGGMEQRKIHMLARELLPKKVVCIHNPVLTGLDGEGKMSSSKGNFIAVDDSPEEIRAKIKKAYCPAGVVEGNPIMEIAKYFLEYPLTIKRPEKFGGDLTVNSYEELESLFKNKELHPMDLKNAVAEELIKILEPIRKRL

N[C@@H](Cc1cc(Cl)c(O)c(Cl)c1)C(=O)O [Cl2Y, 3,5-dichloro-L-tyrosine]
pKa [1, 5]: 9.4 | pKa [1, 6]: 6.5 | pKa of the phenolic side-chain [1]: 6.52 | Fluorescence Instensity (MjTyrRS variants [2]): 0.5689 a.u. and 0.6362 a.u. and 0.4688 a.u. | Incorporation efficiency (sfGFP fluorescence) versus control without HYs additions (MjTyrRS variants [2]; mutant B48RS, 1 mM HY, E. coli DH10b): more than 100 fold | Fluorescence Instensity (MjTyrRS variants [3]; Synthetase B4RS): 0.07529 a.u. and 0.09709 a.u. and 0.05112 a.u. | Fluorescence Instensity (MjTyrRS variants [3]; Synthetase B12RS): 0.3851 a.u. and 0.4746 a.u. and 0.2926 a.u. | Fluorescence Instensity (MjTyrRS variants [3]; Synthetase B37RS): 0.3145 a.u. and 0.3721 a.u. and 0.2575 a.u. | Fluorescence Instensity (MjTyrRS variants [3]; Synthetase B39RS): 0.2554 a.u. and 0.3069 a.u. and 0.2029 a.u. | Fluorescence Instensity (MjTyrRS variants [3]; Synthetase C5RS): 0.7019 a.u. and 0.7995 a.u. and 0.5915 a.u. | Fluorescence Instensity (MjTyrRS variants [3]; Synthetase C45RS): 0.8209 a.u. and 0.9248 a.u. and 0.7159 a.u. | Fluorescence Instensity (MjTyrRS variants [3]; Synthetase C61RS): 0.5873 a.u. and 0.6501 a.u. and 0.5303 a.u. | Fluorescence Instensity (MjTyrRS variants [4]): 0.3285 a.u. and 0.3594 a.u. and 0.2924 a.u.

N[C@@H](Cc1ccc(O)c(Cl)c1)C(=O)O [ClY, 3-chloro-L-tyrosine]
pKa [1, 5]: 9.5 | pKa [1, 6]: 8.3 | pKa of the phenolic side-chain [1]: 8.31 | Fluorescence Instensity (MjTyrRS variants [2]): 0.5472 a.u. and 0.654 a.u. and 0.4364 a.u. | Fluorescence Instensity (MjTyrRS variants [3]; Synthetase B12RS): 0.3856 a.u. and 0.4561 a.u. and 0.2986 a.u. | Fluorescence Instensity (MjTyrRS variants [3]; Synthetase B37RS): 0.2734 a.u. and 0.2944 a.u. and 0.2525 a.u. | Fluorescence Instensity (MjTyrRS variants [3]; Synthetase C5RS): 0.8727 a.u. and 1 a.u. and 0.7434 a.u. | Fluorescence Instensity (MjTyrRS variants [3]; Synthetase C45RS): 0.8577 a.u. and 0.9724 a.u. and 0.7484 a.u. | Fluorescence Instensity (MjTyrRS variants [3]; Synthetase C61RS): 0.5458 a.u. and 0.6071 a.u. and 0.5015 a.u. | Fluorescence Instensity (MjTyrRS variants [4]): 0.3514 a.u. and 0.3883 a.u. and 0.3147 a.u.

N[C@@H](Cc1ccc(O)cc1)C(=O)O [Y, tyrosine]
Gray value (FtsZ-YFP-mts; Distance(um) 5.15845): 0.2436 | Gray value (FtsZ-YFP-mts; Distance(um) 5.17427): 0.2678 | Gray value (FtsZ-YFP-mts; Distance(um) 5.1901): 0.2809 | Gray value (FtsZ-YFP-mts; Distance(um) 5.20592): 0.2851 | Gray value (FtsZ-YFP-mts; Distance(um) 5.22175): 0.3113 | Gray value (FtsZ-YFP-mts; Distance(um) 5.23757): 0.3327 | Gray value (FtsZ-YFP-mts; Distance(um) 5.25339): 0.3531 | Gray value (FtsZ-YFP-mts; Distance(um) 5.26922): 0.3835 | Gray value (FtsZ-YFP-mts; Distance(um) 5.28504): 0.428 | Gray value (FtsZ-YFP-mts; Distance(um) 5.30086): 0.443 | Gray value (FtsZ-YFP-mts; Distance(um) 5.31669): 0.4411 | Gray value (FtsZ-YFP-mts; Distance(um) 5.33251): 0.4633 | Gray value (FtsZ-YFP-mts; Distance(um) 5.34833): 0.4809 | Gray value (FtsZ-YFP-mts; Distance(um) 5.36416): 0.4782 | Gray value (FtsZ-YFP-mts; Distance(um) 5.37998): 0.498 | Gray value (FtsZ-YFP-mts; Distance(um) 5.3958): 0.5435 | Gray value (FtsZ-YFP-mts; Distance(um) 5.41163): 0.5554 | Gray value (FtsZ-YFP-mts; Distance(um) 5.42745): 0.5565 | Gray value (FtsZ-YFP-mts; Distance(um) 5.44327): 0.5888 | Gray value (FtsZ-YFP-mts; Distance(um) 5.4591): 0.6168 | Gray value (FtsZ-YFP-mts; Distance(um) 5.47492): 0.6475 | Gray value (FtsZ-YFP-mts; Distance(um) 5.49074): 0.6743 | Gray value (FtsZ-YFP-mts; Distance(um) 5.50657): 0.698 | Gray value (FtsZ-YFP-mts; Distance(um) 5.52239): 0.7626 | Gray value (FtsZ-YFP-mts; Distance(um) 5.53821): 0.7361 | Gray value (FtsZ-YFP-mts; Distance(um) 5.55404): 0.7938 | Gray value (FtsZ-YFP-mts; Distance(um) 5.56986): 0.8828 | Gray value (FtsZ-YFP-mts; Distance(um) 5.58569): 0.899 | Gray value (FtsZ-YFP-mts; Distance(um) 5.60151): 0.8493 | Gray value (FtsZ-YFP-mts; Distance(um) 5.61733): 0.8767 | Gray value (FtsZ-YFP-mts; Distance(um) 5.63316): 0.9446 | Gray value (FtsZ-YFP-mts; Distance(um) 5.64898): 1 | Gray value (FtsZ-YFP-mts; Distance(um) 5.6648): 0.9652 | Gray value (FtsZ-YFP-mts; Distance(um) 5.68063): 0.9584 | Gray value (FtsZ-YFP-mts; Distance(um) 5.69645): 0.9755 | Gray value (FtsZ-YFP-mts; Distance(um) 5.71227): 0.9816 | Gray value (FtsZ-YFP-mts; Distance(um) 5.7281): 0.9099 | Gray value (FtsZ-YFP-mts; Distance(um) 5.74392): 0.8492 | Gray value (FtsZ-YFP-mts; Distance(um) 5.75974): 0.8638 | Gray value (FtsZ-YFP-mts; Distance(um) 5.77557): 0.7917 | Gray value (FtsZ-YFP-mts; Distance(um) 5.79139): 0.7498 | Gray value (FtsZ-YFP-mts; Distance(um) 5.80721): 0.6513 | Fluorescence Instensity (MjTyrRS variants [2]): 0.00506 a.u. and 0.00513 a.u. and 0.00494 a.u. | Fluorescence Instensity (MjTyrRS variants [3]; Synthetase B4RS): 0.06037 a.u. and 0.07682 a.u. and 0.04915 a.u. | Fluorescence Instensity (MjTyrRS variants [3]; Synthetase B37RS): 0.1466 a.u. and 0.1756 a.u. and 0.1118 a.u. | Fluorescence Instensity (MjTyrRS variants [3]; Synthetase B39RS): 0.1833 a.u. and 0.2205 a.u. and 0.1319 a.u. | Fluorescence Instensity (MjTyrRS variants [3]; Synthetase C5RS): 0.01571 a.u. and 0.01574 a.u. and 0.0156 a.u. | Fluorescence Instensity (MjTyrRS variants [4]): 0.01243 a.u. and 0.01248 a.u. and 0.01236 a.u.
